Results taken from paper PMC6731241, “L-Type Amino Acid Transporter 1 (LAT1/Lat1)-Utilizing Prodrugs Can Improve the Delivery of Drugs into Neurons, Astrocytes and Microglia” (Scientific Reports, 2019).
Like-named read-outs stand apart in the source and are kept apart here. Blank lines part the entries; values can stand above or below the molecule they belong to.

How the values were obtained:
LAT1/Lat1 = test system: LAT1/Lat1; design: method as in PMID 11557028, PMID 15567481, PMID 19890975; details: human LAT1 transfected cells or cancer cells expressing hLAT1 or rodent Lat1; read-out: Affinity (Km), previously reported values; cited from earlier work
Lat1 [1] = biological target: T1, Lat1 (Mus musculus, UniProt Q9Z127); test: [14C]-L-Leu uptake kinetics in primary cortical neurons; details: 0.76–75 µM, 2.5 min
Lat1 [2] = biological target: T1, Lat1; test: [14C]-L-Leu uptake kinetics, primary cortical neurons and immortalized microglia (joint range); details: range over primary cortical neurons and immortalized microglia
Lat1 [3] = biological target: T1, Lat1; test: [14C]-L-Leu uptake kinetics in immortalized microglia (BV2); details: 0.76–75 µM, 2.5 min
Lat1 [4] = biological target: T1, Lat1; test: [14C]-L-Leu uptake kinetics in primary astrocytes; details: 0.76–75 µM, 2.5 min
[5] = design: method as in PMID 28662899, PMID 27266990; details: unspecific brain tissue binding, fraction unbound (fu,brain), equilibrium dialysis; cited from earlier work
[6] = cited from earlier work
[7] = Bioconversion in immortalized BV2 microglia homogenate; assay type: in vitro ADME, mouse; details: for half-life at 400 µM: mouse, pH 7.4, 37 °C
Method: (§1) The rates of bioconversion of all studied prodrugs in immortalized BV2 microglia and primary astrocytes homogenates were determined at 37 °C. The cell homogenates were prepared by homogenizing 10 × 10^6 cells/ml in HBSS (pH 7.4) with SoniPerp 150 Plus disintegrator (MSE Ltd., London, UK) for 2 s × 3. The incubation mixtures were prepared by mixing cell homogenate (final protein concentration 1.0 mg/mL) with HBSS buffer and 10 mM prodrug stock solution in DMSO (the final concentration of prodrugs was 400 µM and the DMSO concentration […]). The mixture was then incubated for 5 h and the samples (50 µL) were withdrawn at appropriate intervals. The proteins in the samples were precipitated with ice-cold acetonitrile (150 µL) and the samples were centrifuged for 5 min at 12 000 × g at room temperature. The supernatants were collected and analyzed by the LC-MS methods as reported earlier[19],[24],[26]. In blank reactions (chemical stability), the cell homogenate was replaced with same volume of buffer. The pseudo-first-order half-lives (t½) for the rates of bioconversion of the prodrugs were calculated from the slope of the linear portion of the plotted logarithm of remaining prodrug concentration versus time.

mouse primary astrocytes = test: Cellular uptake of compounds into primary astrocytes; assay type: cell-based
Method: (§2) Pre-incubation was done with 500 μL of pre-warmed HBSS at 37 °C for 10 min before adding substrates (250 μL in HBSS) for the uptake experiments. The ability of brain cell to carry a known LAT1/Lat1 substrate, the cells were incubated with [^14C]-L-leucine at 37 °C for 2.5 min in uptake buffer (HBSS, 250 μL) containing 0.76–75 μM (0.25 mCi/ml) of [^14C]-L-leucine (PerkinElmer, Waltham, MA, USA).
(§3) The protein concentrations on each plate were determined as a mean of three samples by Bio-Rad Protein Assay, based on the Bradford dye-binding method, using bovine serum albumin (BSA) as a standard protein and measuring the absorbance (595 nm) by multiplate reader (EnVision, Perkin Elmer, Inc., Waltham, MA, USA).

[8] = test system: primary cortical neurons and immortalized microglia; test: Cellular uptake of compounds, neurons and microglia (joint range); assay type: cell-based, mouse; details: for Uptake of prodrug relative to parent drug 2: primary cortical neurons and immortalized microglia
Method: as §2, §3

[9] = Bioconversion in primary astrocytes homogenate; assay type: in vitro ADME, mouse; details: for half-life at 400 µM: mouse, pH 7.4, primary astrocytes homogenate, 37 °C
Method: as §1

Lat1 [10] = biological target: T1, Lat1; test: Competitive prodrug uptake with LAT1/Lat1-inhibitor (KMH-233), all cell types; assay type: cell-based; design: neurons and microglia also express functional Lat1 on their cell surface; endogenous in cells; host or cells: mouse primary cortical neurons, mouse primary astrocytes, immortalized mouse microglia (BV2); details: 100 µM KMH-233, range over all cell types
Method: The competitive uptake in the presence of LAT1/Lat1-inhibitor (KMH-233) was carried out as described above with HBSS buffer solution containing 1–10 µM of the studied compounds. The cells were pre-incubated with 100 µM LAT1/Lat1-inhibitor for 10 min and the incubation mixture was removed before adding the studied prodrug and LAT1/Lat1-inhibitor on the cells. The competitive uptake (30 min) with the inhibitor was then carried out as the normal uptake described above. The amounts of studied compounds were analyzed by the LC-MS method and calculated from the spiked standard curve and normalized with the protein concentrations.

[11] = test system: immortalized microglia (BV2); test: Cell viability of immortalized microglia (resazurin); assay type: cell-based; details: 100 µM, 24 h
Method: 2. Effects of LAT1-Utilizing Prodrugs and Their Parent Drugs on the Cell Viability of Immortalized
Immortalized microglia (BV2) were seeded at the density of 2 × 10^4 cells/well onto collagen-coated 96-well plates. The cells were used for the proliferation experiments one day after seeding. A concentration of 100 µM of studied compounds were added into the growth medium and incubated for 24 h, after which the cell viability was determined by resazurin cell proliferation kit (Sigma, St.
Louis, MO, USA). The samples were measured fluorometrically by monitoring the increase in fluorescence at a wavelength of 590 nm using an excitation wavelength of 560 nm (EnVision, Perkin Elmer, Inc., Waltham, MA, USA), which is directly proportional to aerobic respiration and cellular metabolism of cells. The cell death was confirmed in the decrease of cell amount by visualizing the […]
Figure S2. The cell viability of immortalized microglia (BV2) after 24 h incubation of 100 µM LAT1-utilizing prodrugs (PD1-PD6) and their parent drugs (D1-D3) presented as percentages (%) compared to the untreated cells (ctrl) (mean ± SD, n=3-6). An asterisk denotes a statistically significant difference from the respective control (** P < 0.01, * P < 0.05 one-way ANOVA, followed by […]

[12] = cited from earlier work; remark: listed apart in the source
[13] = test system: immortalized microglia (BV2); test: Cellular uptake of compounds into immortalized microglia (BV2); assay type: cell-based, mouse; details: 25, 50 and 100 µM (Fig. 4c)
Method: as §2

mouse primary neurons = test: Cellular uptake of compounds into primary neurons; assay type: cell-based; details: 25, 50 and 100 µM (Fig. 4c)
Method: as §2

[14] = 400 µM, read-out: Half-life of bioconversion

T1 sequence (Q9Z127 whole entry): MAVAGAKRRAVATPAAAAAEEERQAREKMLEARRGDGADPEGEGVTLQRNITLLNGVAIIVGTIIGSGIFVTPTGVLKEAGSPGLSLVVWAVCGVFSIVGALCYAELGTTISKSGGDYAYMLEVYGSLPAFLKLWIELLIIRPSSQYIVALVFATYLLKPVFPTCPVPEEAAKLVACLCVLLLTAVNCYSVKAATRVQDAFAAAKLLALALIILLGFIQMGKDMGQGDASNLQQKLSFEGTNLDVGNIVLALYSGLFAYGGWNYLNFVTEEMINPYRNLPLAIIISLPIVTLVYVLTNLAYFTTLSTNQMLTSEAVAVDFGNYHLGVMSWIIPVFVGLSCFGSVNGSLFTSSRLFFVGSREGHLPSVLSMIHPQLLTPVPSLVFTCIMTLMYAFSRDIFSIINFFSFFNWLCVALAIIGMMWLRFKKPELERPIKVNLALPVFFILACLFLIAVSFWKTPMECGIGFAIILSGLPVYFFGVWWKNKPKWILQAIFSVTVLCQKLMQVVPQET
T1 sequence (P10852 whole entry partner): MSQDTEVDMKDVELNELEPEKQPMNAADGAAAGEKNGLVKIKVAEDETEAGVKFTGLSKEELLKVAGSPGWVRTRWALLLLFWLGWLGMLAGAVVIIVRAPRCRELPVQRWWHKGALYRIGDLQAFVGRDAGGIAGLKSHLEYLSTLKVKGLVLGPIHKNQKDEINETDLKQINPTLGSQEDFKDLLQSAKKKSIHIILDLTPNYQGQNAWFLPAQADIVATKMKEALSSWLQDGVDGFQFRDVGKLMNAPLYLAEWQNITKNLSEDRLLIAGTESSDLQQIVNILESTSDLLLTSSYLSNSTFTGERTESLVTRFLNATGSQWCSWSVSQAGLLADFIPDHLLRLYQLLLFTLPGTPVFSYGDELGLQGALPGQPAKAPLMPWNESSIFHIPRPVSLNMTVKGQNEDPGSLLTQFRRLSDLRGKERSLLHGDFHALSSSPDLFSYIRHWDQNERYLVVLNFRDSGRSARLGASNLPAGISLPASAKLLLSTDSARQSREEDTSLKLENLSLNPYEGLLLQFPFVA

Km (Lat1 [1]): 146 ± 47.3 µM | Vmax (Lat1 [1]): 1.90 ± 0.44 nmol/min/mg protein | Km (Lat1 [4]): 65.9 ± 14.3 µM | Vmax (Lat1 [4]): 2.92 ± 0.36 nmol/min/mg protein
SMILES: CC(C)C[C@H](N)C(=O)O [[^14C]-L-Leu, L-leucine]
Km (LAT1/Lat1): 9 to 52 µM | Km (Lat1 [2]): 85.8 to 146 µM | Vmax (Lat1 [2]): 0.84–1.90 nmol/min/mg of protein | Vmax (Lat1 [3]): 0.84 ± 0.12 nmol/min/mg protein

SMILES: O=C1OCc2cc(-c3ccc(-c4ccc(CO)cc4)s3)ccc21 [D1, reference compound]
Brain Protein Binding fu (%) [5]: 0.03%

SMILES: CC(C(=O)Oc1cccc(C[C@H](N)C(=O)O)c1)c1cccc(C(=O)c2ccccc2)c1 (some centres unmarked) [PD3]
Half-life in brain S9 subcellular fraction ([6]; approximate): ~1 h | t½ in mouse brain S9 subcellular fraction ([6]; conversion to ketoprofen): 0.866 ± 0.0387 h | half-life at 400 µM ([7]; immortalized BV2 microglia homogenate, immortalized microglia homogenate, 400 µM, read-out: Half-life of bioconversion): 3.35 ± 0.224 h | Uptake of prodrug relative to ketoprofen (mouse primary astrocytes): 10–80 times | Uptake of prodrug relative to parent drug 2 [8]: 1–7 times | half-life at 400 µM [9, 14]: 4.71 ± 0.263 h | Inhibition of prodrug uptake by LAT1/Lat1-inhibitor (Lat1 [10]; 1 µM prodrug): 47.41–58.32%

SMILES: COc1cc(/C=C/C(=O)NCc2cccc(C[C@@H](N)C(=O)O)c2)ccc1O [PD4]
Stability in cell homogenate ([7]; microglia homogenate): stable | Stability in cell homogenate ([9]; astrocytes homogenate): stable | Effect on cell viability [11]: slightly increased the cell proliferation | Inhibition of prodrug uptake by LAT1/Lat1-inhibitor (Lat1 [10]; 10 µM prodrug): 83.24–85.23% | Brain Protein Binding fu (%) [5]: 13.0%

SMILES: COc1cc(/C=C/C(=O)Oc2cccc(C[C@H](N)C(=O)O)c2)ccc1O [PD6]
Intact prodrug detected after 5 h ([6]; brain S9 subcellular fraction): 70% | half-life at 400 µM ([7]; tissue homogenate, microglia homogenate, read-out: Estimated half-life of bioconversion): > 9 h | half-life at 400 µM ([9]; astrocytes homogenate, read-out: Estimated half-life of bioconversion): > 9 h

SMILES: CC(C(=O)Nc1cccc(C[C@H](N)C(=O)O)c1)c1cccc(C(=O)c2ccccc2)c1 (some centres unmarked) [PD2]
Stability in brain S9 subcellular fraction ([6]; in vitro media lack co-factors): stable and do not release ketoprofen at all | Stability in cell homogenate ([7]; microglia homogenate): completely stable | Uptake of prodrug relative to ketoprofen (mouse primary astrocytes): 10–80 times | Uptake of prodrug relative to parent drug 2 [8]: 1–7 times | Half-life in vivo (release of ketoprofen) ([12]; brain): 0.45 h | Half-life in vivo (release of ketoprofen) ([12]; liver): 0.383 h | Half-life in vivo (release of ketoprofen) ([12]; plasma): 0.267 h | Stability in cell homogenate ([9]; astrocytes homogenate): completely stable | Brain Protein Binding fu (%) [5]: 6.2%

SMILES: N[C@H](Cc1cccc(C(=O)OCc2ccc(-c3ccc(-c4ccc5c(c4)COC5=O)s3)cc2)c1)C(=O)O [PD1]
Half-life in brain S9 subcellular fraction ([6]; in vitro, listed as Prodrug 1): approximately 4.7 h | Half-life in brain S9 subcellular fraction ([6]; in vitro, listed as prodrug 1): approximately 5 h | half-life at 400 µM ([7]; tissue homogenate, immortalized microglia homogenate, 400 µM, read-out: Half-life of bioconversion): 3.96 ± 0.738 h | Uptake of prodrug relative to its parent drug ([8]; neurons and microglia): 10–17 | Half-life in vivo ([12]; brain): 1.4 h | Half-life in vivo ([12]; liver): 1.25 h | Half-life in vivo ([12]; plasma): 1.57 h | half-life at 400 µM [9, 14]: 5.81 ± 0.402 h | Brain Protein Binding fu (%) [5]: 1.4%

Cell uptake (mouse primary neurons): below LLOQ
SMILES: COc1cc(/C=C/C(=O)O)ccc1O [D3, ferulic acid, reference compound]
Cell uptake [13]: below LLOQ | Amount in cells (under the detection limit) ([8]; neurons and microglia): < 1.0 nM | Brain Protein Binding fu (%) [5]: 26.0%

SMILES: COc1cc(/C=C/C(=O)Nc2cccc(C[C@H](N)C(=O)O)c2)ccc1O [PD5]
Stability in cell homogenate ([7]; microglia homogenate): stable | Stability in cell homogenate ([9]; astrocytes homogenate): stable | Effect on cell viability [11]: slightly increased the cell proliferation | Brain Protein Binding fu (%) [5]: 7.0%
